Measurements reported in US20210094922A1, “Dyes for Analysis of Soluble Protein Aggregates or Misfolded Protein Oligomers” (The Penn State Research Foundation, priority 2018, published 2021).
“And” between values parts separate entries of the source, which are not always exact repeats. Identical values can stand only once.

Legend:
[1] = Photophysical parameters of fluorophores in glycerol; assay type: physicochemical; settings: for B (brightness): calculated using B = Φϵ; for fluorescence in solvents with increasing concentrations of glycerol: glycerol:H2O mixtures; for Φ (quantum yield) / λem / λex / decrease in brightness relative to 3 / diminished quantum yield relative to 3: in glycerol; for λabs: maximum absorbance measured in glycerol; for ϵ (extinction coefficient): measured in glycerol
Protocol: FP analogues (20 μM) were prepared in glycerol:H2O mixture with increasing glycerol concentrations. In addition, fluorescence intensity in 1,4-dioxane was measured to evaluate their response to polarity. Fluorescence measurement was carried out using a Tecan infinite M1000Pro fluorescence microplate reader at excitation and emission wavelengths as indicated. All readings were normalized against the fluorescence intensity in 100% glycerol as 1. Error bars: standard error (n=3).
FP analogues (20 μM) were prepared in glycerol. Spectra were collected with emission wavelength of 420 nm for 1, 525 nm for 2, 620 nm for 3, 3a and 3b. All measurements were carried out using a Tecan infinite M1000Pro fluorescence microplate reader.
FP analogues (20 μM) were prepared in glycerol. Spectra were collected with excitation wavelength of 370 nm for 1, 455 nm for 2, 530 nm for 3 and 3b, 485 nm for 3a. All measurements were carried out using a Tecan infinite M1000Pro fluorescence microplate reader.
FP analogues (10 μM) were prepared in glycerol. Spectra were collected with 10 mm quartz cuvette. All measurements were carried out using Agilent 300 UV-Vis spectrophotometer.
However, the quantum yield (QY, Φ=0.001 for 1 and Φ=0.027 for 2 in glycerol, Table 2) was much lower than that of a GFP (Φ=0.79).

SOD1-A4V-Halo = SOD1-A4V-Halo (Homo sapiens, UniProt P00441, A5V); test: In vitro heat-induced aggregation of SOD1-A4V-Halo conjugates; assay type: biochemical
From the text: (B-C) Excitation and emission spectra of 4 (with misfolded oligomers of SOD1-A4V-Halo) and 5 (with insoluble aggregates of SOD1-A4V-Halo).
The inventors installed Halo-tag reactive warhead to 2, resulting in 5.

[2] = Photostability of 3, absorbance under laser irradiation; assay type: physicochemical; settings: 5 mW laser beam of 543 nm; glycerol and protein aggregates
From the text: The inventors also determined photostability of 3 by measuring its absorbance spectra in glycerol and protein aggregates. […] These photochemical properties make 3 suited for fluorescence microscopy.

[3] = Fluorescence of crystals of 3; assay type: physicochemical; settings: crystal
From the text: (a) The crystal of 3 is fluorescent. The crystals were looped out and transferred to a 35 mm glass bottom dish. Images were taken using an inverted Biorad ZOE fluorescent cell imager. […] Reason of the dark image in the bright field is because light of an inverted microscope could not pass through the thick crystal. (b) Crystal structure and packing diagram of 3, with thermal ellipsoids drawn at 50% probability level.
The fluorescence may arise from the tight crystal packing that inhibits TICT of 3 (FIG. 10b).

α-synuclein = target: T1, α-synuclein (Homo sapiens, UniProt P37840); test: α-synuclein aggregation assay, fluorogenic detection; assay type: biochemical; settings: for stoichiometry of fluorescence intensity with α-syn concentration: 70 vs 140 μM α-syn
T1 construct: made in house; host or cells: E. coli (pET29b vector)
Protocol: Aggregation of α-synuclein was carried out using method described in the Supporting Information. Subsequently, half of reaction mixture was loaded on a 96-well plate to measure fluorescence intensity of 3 (a) or ThT (b) for the reaction mixture (T). The other half was centrifuged at 21,000 g for 30 minutes at 4° C. The supernatant fraction (S) and pellet fraction (P, after resuspension with a volume that was equal to that of the S fraction) were loaded on a 96-well plate to measure fluorescence intensity. 10 μM 3 or ThT was also incubated in buffer as a control. Parameters for fluorescence measurement: 3 (Ex=530 nm/Em=600 nm) and ThT (Ex=440 nm/Em=480 nm). Error bars: standard error (n=3).
(§1) HEK293T cultures were seeded at 25% confluency 24 h prior to transfection in 12-well plate for time dependent fluorescence plate reader analysis or 35 mm glass bottom culture dishes (Poly-d-lysine coated, MatTek Corporation). Cells were grown in DMEM medium supplemented with 10% FBS and penicillin-streptomycin antibiotics until they reached 50-60% confluency. Transfection was performed using X-tremeGene™ 9 DNA transfection reagent (Roche). After 24 h of protein expression and co-translational labeling, medium was replaced with fresh DMEM to diffuse out unbound ligands. After 30 min, media was replaced by fresh DMEM medium containing DMSO vehicle or NaAsO2 (50 μM). Cells were incubated for 18 h, 37° C. in a CO2 incubator. Nuclear stain Hoechst 33342 ([…]) was added to the medium 30 min prior to confocal imaging. Aggregation Assays. α-synuclein: Aggregation solution contained 70 or 140 μM α-synuclein in 20 mM HEPES (pH 7.5) and 100 mM NaCl. 10 μM of 3 or ThT was added to the solution at the beginning of reaction. Previous studies have shown that the kinetics of α-synuclein aggregation is unaffected by the addition of ThT. A volume of 150 μL of the mixture was pipetted into a well of clear-bottom 96-well plate, which was subsequently sealed with Mylar plate sealers. The plate was loaded on a Heidolph vibrating platform shaker and shake at 1,350 rpm at 37° C. At indicated time points, fluorescence reading was obtained using a Tecan M1000Pro fluorescence plate reader. Fluorescence intensity was recorded at Ex=530 nm/Em=600 nm for 3 and Ex=450 nm/Em=480 nm for ThT. Each sample was run in triplicate or quadruplicate. SOD1(V31A): Aggregation was carried out with DPBS buffer containing indicated concentrations of EDTA that is used to chelate the structural metal of SOD1. Aggregation solution contained 42 μM SOD1(V31A) or SOD1(V31A)-Halo and […] of 3 was added to the solution at the beginning of reaction. Reaction was carried out quiescently at indicated temperatures. Fluorescence of 3 was measured at Ex=530 nm/Em=600 nm.

SOD1(V31A) = target: T2, SOD1(V31A) (Homo sapiens, UniProt P00441, V32A); test: Heat-induced SOD1(V31A) aggregation assay, fluorogenic detection; assay type: biochemical
T2 construct: linker (TEV site)-Halo-His6 (C, cleaved yes); made in house; host or cells: E. coli BL21 DE3* (pET29b; pBAD σ32-I54N co-expressed)
Protocol: (a) SOD1(V31A) aggregation (42 μM) was induced at 59° C. for 30 min in buffer (50 mM Tris-HCl, pH 7.5, 100 mM NaCl, 83 mM EDTA), in the presence of 3 (21 μM). Reaction mixture was illuminated by UV trans-illuminator before and after centrifugation at 21,000 g for 10 min at 4° C. (b) Fluorescence intensity of SOD1(V31A) aggregates (42 μM) in the presence of varying concentrations of 3. 100 μM of 3 in buffer was used as a control. Parameters for fluorescence measurement: 3 (Ex=530 nm/Em=600 nm). Error bars: standard error (n=3).
as §1

HEK293T cells = test: Stress-induced proteome aggregation in HEK293T cells with MG132 (AggGlow); assay type: cell-based, human; settings: 5 μM MG132, 2.5 μM 3
From the text: (§2) Untreated cells remain dark as shown in right panel.
(§3) 3 is used to monitor stress-induced proteome aggregation in HEK293T (human embryonic kidney) cells with a proteasome inhibitor MG132. […] The diffusive fluorescence structure indicates misfolded oligomers and the granular fluorescence structure indicates insoluble aggregates. Similar to this application, 3 was used to monitor stress-induced proteome aggregation in HeLa cells with a heat-shock protein 90 (Hsp90) inhibitor 17-AAG.

HeLa cells = test: Stress-induced proteome aggregation in HeLa cells with 17-AAG (AggGlow); assay type: cell-based; settings: 1 μM 17-AAG, 2.5 μM 3
From the text: as §2, §3

T2 sequence (P00441 whole entry V32A): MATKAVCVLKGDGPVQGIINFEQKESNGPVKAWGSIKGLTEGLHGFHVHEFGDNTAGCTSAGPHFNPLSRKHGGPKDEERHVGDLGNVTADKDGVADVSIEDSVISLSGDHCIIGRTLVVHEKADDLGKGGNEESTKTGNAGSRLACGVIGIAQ
SOD1-A4V-Halo, sequence (P00441 with tags, fused parts or gaps A5V): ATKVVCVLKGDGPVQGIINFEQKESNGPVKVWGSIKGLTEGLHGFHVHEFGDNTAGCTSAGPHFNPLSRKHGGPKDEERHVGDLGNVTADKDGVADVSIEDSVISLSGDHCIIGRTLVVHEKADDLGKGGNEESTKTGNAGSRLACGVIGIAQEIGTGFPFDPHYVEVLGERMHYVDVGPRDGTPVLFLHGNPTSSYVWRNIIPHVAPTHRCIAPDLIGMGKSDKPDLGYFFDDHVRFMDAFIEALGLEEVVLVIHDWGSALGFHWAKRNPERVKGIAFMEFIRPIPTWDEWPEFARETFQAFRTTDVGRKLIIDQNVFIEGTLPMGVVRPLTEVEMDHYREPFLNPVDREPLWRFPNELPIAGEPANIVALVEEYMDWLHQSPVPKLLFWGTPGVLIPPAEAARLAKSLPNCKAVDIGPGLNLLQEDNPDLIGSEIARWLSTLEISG

Structure (SMILES) | B (brightness) [1] | fluorescence in solvents with increasing concentrations of glycerol [1] | Φ (quantum yield) [1] | λem [1] | λex [1] | λabs [1] | ϵ (extinction coefficient) [1] | detection of soluble oligomers of α-syn (α-synuclein) | stoichiometry of fluorescence intensity with α-syn concentration (α-synuclein) | decrease in brightness relative to 3 [1] | diminished quantum yield relative to 3 [1] | other results
CC1=N/C(=C\c2ccc(O)cc2)C(=O)N1CC(=O)OC(C)(C)C [Compound 1, (Z)-tert-butyl 2-(4-(4-(hydroxy)benzylidene)-2-methyl-5-oxo-4,5-dihydro-1H-imidazol-1-yl)acetate] | 20.6 M⁻¹ cm⁻¹ | elevated fluorescence | 0.001 | 429 nm | 370 nm | 376 nm | 20,592 M^−1cm^−1 |  |  |  |  | 
CC1=N/C(=C\c2ccc(N(C)C)cc2)C(=O)N1CC(=O)OC(C)(C)C [Compound 2, (Z)-tert-butyl 2-(4-(4-(dimethylamino)benzylidene)-2-methyl-5-oxo-4,5-dihydro-1H-imidazol-1-yl)acetate] | 640 M⁻¹ cm⁻¹ | elevated fluorescence | 0.027 | 521 nm | 450 nm | 452 nm | 23,718 M^−1cm^−1 |  |  |  |  | which POI conformations activate fluorescence (SOD1-A4V-Halo): only activates fluorescence when POI forms insoluble aggregates
CN(C)c1ccc(/C=C2N=C(/C=C/c3ccc(N(C)C)cc3)N(CC(=O)OC(C)(C)C)C\2=O)cc1 [Compound 3, tert-butyl 2-((Z)-4-(4-(dimethylamino)benzylidene)-2-((E)-4-(dimethylamino)styryl)-5-oxo-4,5-dihydro-1H-imidazol-1-yl)acetate] | 8,786 M^−1cm^−1 |  | 0.22 and 0.221 | 629 nm | 530 nm | 530 nm | 39,049 M^−1cm^−1 | detects soluble oligomers via fluorescence increase | stoichiometric |  |  | drop of absorbance at 530 nm on irradiation [2]: 10%; fluorescence of crystals [3]: exhibited fluorescence; fluorescence intensity with mature α-syn fibers (α-synuclein; 70 μM α-syn): 0.52; fluorescence intensity with mature α-syn fibers (α-synuclein; 140 μM α-syn): 1.0; time at which second phase of fluorescence increase was observed (α-synuclein; fiber growth): 20 h; time at which second phase leveled off (α-synuclein; fiber maturation): 36 h; time at which fluorescence reached a plateau (α-synuclein; first phase): 8 h; time at which fluorescence started to increase (α-synuclein; first phase, soluble oligomers): 4 h; kinetics of fluorescence increase versus protein misfolding (tryptophan fluorescence) (SOD1(V31A)): identical to that of protein misfolding; kinetics of fluorescence increase versus turbidity (SOD1(V31A); 54.5° C.): faster than that of turbidity; fraction in which fluorescence signal is found (SOD1(V31A); after centrifugation): primarily found in the fraction of insoluble protein aggregates; quantum yield after aggregation of SOD1-V31A (SOD1(V31A); incubated at 59° C.): 0.22; quantum yield before aggregation of SOD1-V31A (SOD1(V31A); start value): 0.02; fluorescence in stressed cells (HEK293T cells): obvious fluorescence pattern was developed in the cytosol; fluorescence in stressed cells (HeLa cells): obvious fluorescence pattern was developed in the cytosol
CN(C)c1ccc(/C=C/C2=NC(=C\c3ccccc3)/C(=O)N2CC(=O)OC(C)(C)C)cc1 [Compound 3a, tert-butyl 2-((Z)-4-benzylidene-2-((E)-4-(dimethylamino)styryl)-5-oxo-4,5-dihydro-1H-imidazol-1-yl)acetate] | 1,386 M^−1cm^−1 |  | 0.1 | 621 nm | 485 nm | 500 nm | 13,863 M^−1cm^−1 |  |  | ~5 fold | ~50% | 
CN(C)c1ccc(/C=C2N=C(/C=C/c3ccccc3)N(CC(=O)OC(C)(C)C)C\2=O)cc1 [Compound 3b, tert-butyl 2-((Z)-4-(4-(dimethylamino)benzylidene)-5-oxo-2-((E)-styryl)-4,5-dihydro-1H-imidazol-1-yl)acetate] | 2,089 M^−1cm^−1 |  | 0.232 | 630 nm | 530 nm | 533 nm | 9,004 M^−1cm^−1 |  |  | ~5 fold | does not affect quantum yield | 
Cc1ccc2c(c1)sc(-c1ccc(N(C)C)cc1)[n+]2C.[Cl-] [Thioflavin T, thioflavin T, reference compound] |  |  |  |  |  |  |  | fails to detect soluble oligomers | such stoichiometry was absent |  |  | 
